Results taken from patent publication US20080004290A1, “Anti-Cancer Agents” (THE UNIVERSITY OF QUEENSLAND, priority 2003, published 2008).
Like-named read-outs stand apart in the source and are kept apart here.

Experiments:
[1] = system: NFF, neonatal foreskin fibroblasts; experiment: Cell survival assay (clonogenic survival, SRB), normal cells; assay type: cell-based, human; conditions: SRB
Method: (§1) The cytotoxicities of the compounds of the invention were determined by clonogenic survival of human cancer cells (MM96L, melanoma) and human normal cells (NFF, neonatal foreskin fibroblasts). Cells were incubated with the compounds at various concentrations of compound (0.01-10 μg/mL) for 24 hours, washed, and then grown for a further four days in the absence of hydroxamic acid before determining cell survival by cell count. The final readout involved staining with sulforhodamine B (SRB), a cost-effective method amenable to automation and high throughput analysis. At the technical level, “cell sensitivity” is often inferred from short term (1-2 day) observations such as apoptosis, which may not be a satisfactory model of clonogenic survival.
(§2) Cell Lines and Culture Medium. All cell lines used in this study have been described previously (Parsons et al., 1986; Todaro et al., 1980; Glenn et al., 2004). All cell lines were cultured in 10% heat-inactivated foetal calf serum (CSL, Australia) in RPMI 1640 medium supplemented with 100 U/mL penicillin, 100 μg/mL streptomycin, and 3 mM HEPES at 5% CO2, 99% humidity at 37° C. Primary human fibroblasts were obtained from neonatal foreskins and cultured in the above medium. Routine mycoplasma tests were performed using Hoechst stain^i and were always negative.
(§3) Cell Survival Assay. Cells were plated into 96-well microtitre plates at 5×10^3 cells/well, and allowed to adhere overnight. Test compounds were added to culture medium at the indicated concentrations, and plates incubated in the above conditions for 24 hours. Following this incubation period, compounds and media were removed, and replaced with fresh culture medium. Cells were then grown for a further 72 hours before assay using sulforhodamine B (SRB; Sigma, St. Louis, Mo.) as previously described. Briefly, the culture medium was removed from the 96-well microtitre plates and the plates washed twice with phosphate buffered saline (PBS), before the cells were fixed with methylated spirits for 15 minutes. The plates were then rinsed with tap water and the fixed cells stained with 50 μL/well of SRB solution (0.4% sulforhodamine B (w/v) in 1% (v/v) acetic acid) over a period of 1 hour. The SRB solution was then removed from the wells and the plates rapidly washed two times with 1% (v/v) acetic acid. Protein bound dye was then solubilised with the addition of 100 μL of 10 mM unbuffered Tris, and incubated for 15 min at 25° C. Plates were then read at 564 nm on a VERSA max tunable microplate reader (Molecular Devices, Sunnyvale, Calif.).

[2] = system: MM96L melanoma cells; experiment: Cell survival assay (clonogenic survival, SRB); assay type: cell-based, human; conditions: for SI (Selectivity Index = IC50 (NFF)/IC50 (MM96L)): NFF vs MM96L
Method: as §1, §2, §3

[3] = Homo sapiens, Fibroblast, NFF normal fibroblasts, 24 h with compound, further 72 h growth, read-out: IC50 (uM) NFF
[4] = Homo sapiens, MM96L, MM96L melanoma, 24 h with compound, further 72 h growth, SRB, read-out: IC50 (uM) MM96L
[5] = Table 5, 24 hours with compound, further growth, read-out: IC50 NFF
[6] = Table 5, 24 hours with compound, further growth, SRB, read-out: IC50 MM96L
[7] = Table 5, Selectivity Index = IC50 (NFF)/IC50 (MM96L)
[8] = Homo sapiens, Fibroblast, 24 h, Table 6, 24 hours with compound, further growth, read-out: IC50 (μM) NFF
[9] = Homo sapiens, MM96L, 24 h, Table 6, 24 hours with compound, further growth, SRB, read-out: IC50 (μM) MM96L
[10] = Table 6, IC50 (NFF)/IC50 (MM96L)
[11] = Table 8, 24 hours with compound, further growth, read-out: IC50 (μM) NFF
[12] = Table 8, 24 hours with compound, further growth, SRB, read-out: IC50 (μM) MM96
[13] = Table 8, IC50 (NFF)/IC50 (MM96L)
[14] = Table 6, 24 hours with compound, further growth, read-out: IC50 (μM) NFF
[15] = Table 6, 24 hours with compound, further growth, SRB, read-out: IC50 (μM) MM96L

With O=C(CCCCC[C@H](NC(=O)OCc1ccccc1)C(=O)Nc1ccc(-c2ccccc2)cc1)NO [Example 160] the IC50 [1, 3] was 2.21 µM, the IC50 [2, 4] was 0.331 µM and the IC50 ([2]; Homo sapiens, MM96L, most preferred compounds, exemplary examples, read-out: potency of IC50 against the MM96 melanoma cells) was at most 0.5 µM. The “SI (Selectivity Index = IC50 (NFF)/IC50 (MM96L))” value [2] was 6.7.
Work on O=C(CCCSC[C@H](NC(=O)c1cccc(O)c1O)C(=O)NCc1ccccc1)NO [Example 31] yielded an IC50 [1, 5] of 4.5 ± 0.6 µM, an IC50 [2, 6] of 32 ± 3 µM and a Selectivity [2, 7] of 0.14.
In the case of CN(C)c1ccc(C(=O)N[C@@H](CSCCCC(=O)NO)C(=O)NCc2ccccc2)cc1 [Example 73], the IC50 [1, 8] is reported as 0.35 ± 0.07 µM, the IC50 [2, 9] is reported as 0.14 ± 0.09 µM and the Selectivity [2, 10] is reported as 2.5.
Compound CN(C)c1ccc(C(=O)N[C@@H](CSCCCC(=O)NO)C(=O)NCc2ccc(C(=O)NCCCCCCO)cc2)cc1 [Example 105] has an IC50 [1, 11] of 17 µM, an IC50 [2, 12] of 4.26 µM and a Selectivity [2, 13] of 4.0.
CN(C)c1ccc(C(=O)N[C@@H](CSCCCC(=O)NO)C(=O)NCCc2ccccc2)cc1 [Example 83] was tested, and the IC50 [1, 14] was 2.7 ± 0.3 µM, the IC50 [2, 15] was 1.4 ± 0.1 µM and the Selectivity [2, 10] was 1.9.
With CN(C)c1ccc(C(=O)N[C@@H](CSCCCC(=O)NO)C(=O)NCc2cccnc2)cc1 [Example 81] the IC50 [1, 8] was 8.8 ± 0.5 µM, the IC50 [2, 9] was 1.49 ± 0.09 µM and the Selectivity [2, 10] was 5.9.
In the case of CN(C)c1ccc(C(=O)N[C@@H](CSCCCC(=O)NO)C(=O)NCc2ccc(C(=O)NC3CCCC3)cc2)cc1 [Example 117], the IC50 [1, 11] is reported as 5.27 µM, the IC50 [2, 12] is reported as 1.19 µM and the Selectivity [2, 13] is reported as 4.4.
Work on O=C(CCCSC[C@H](NC(=O)c1cnccn1)C(=O)NCc1ccccc1)NO [Example 35] yielded an IC50 [1, 5] of 62 ± 5 µM, an IC50 [2, 6] of 19 ± 2 µM and a Selectivity [2, 7] of 3.3.
In the case of CN(C)c1ccc(C(=O)N[C@@H](CSCCCC(=O)NO)C(=O)NCc2ccc(C(=O)Nc3cccc4cccnc34)cc2)cc1 [Example 115], the IC50 [1, 11] is reported as 1.35 µM, the IC50 [2, 12] is reported as 0.56 µM and the Selectivity [2, 13] is reported as 2.4.
For O=C(CCCCC[C@H](NC(=O)OCC1c2ccccc2-c2ccccc21)C(=O)NCc1ccccc1)NO [Example 142], the IC50 [1, 3] was 5.37 µM, the IC50 [2, 4] was 3.2 µM and the “SI (Selectivity Index = IC50 (NFF)/IC50 (MM96L))” value [2] was 1.7.
CN(C)c1ccc(C(=O)N[C@@H](CSCCCC(=O)NO)C(=O)NCCc2cccc(Br)c2)cc1 [Example 85] showed an IC50 [1, 14] of 3.1 ± 0.1 µM, an IC50 [2, 15] of 0.9 ± 0.1 µM and a Selectivity [2, 10] of 3.4.
O=C(CCCSC[C@H](NC(=O)c1cccs1)C(=O)NCc1ccccc1)NO [Example 33] gave an IC50 [1, 5] of 9 ± 1 µM, an IC50 [2, 6] of 2.5 ± 0.2 µM and a Selectivity [2, 7] of 3.6.
In the case of CN(C)c1ccc(C(=O)N[C@@H](CSCCCC(=O)NO)C(=O)NCc2ccc(C(=O)Nc3ccc(-c4ccccc4)cc3)cc2)cc1 [Example 111], the IC50 [1, 11] is reported as 1.11 µM, the IC50 [2, 12] is reported as 0.51 µM and the Selectivity [2, 13] is reported as 2.2.
CN(C)c1ccc(C(=O)N[C@@H](CSCCCC(=O)NO)C(=O)NCc2ccc(C(=O)NCc3nc4ccccc4[nH]3)cc2)cc1 [Example 113] was tested, and the IC50 [1, 11] was 15.8 µM, the IC50 [2, 12] was 3.96 µM and the Selectivity [2, 13] was 4.0.
For CN(C)c1ccc(C(=O)N[C@@H](CCCCCC(=O)NO)C(=O)NCc2ccccc2)cc1 [Example 122], the IC50 ([1]; NFF normal fibroblasts, 24 h with compound, further 72 h growth, read-out: IC50 (uM) NFF) was 12 ± 2 µM, the IC50 ([2]; MM96L melanoma, 24 h with compound, further 72 h growth, SRB, read-out: IC50 (uM) MM96L) was 1.6 ± 0.3 µM and the “SI (Selectivity Index = IC50 (NFF)/IC50 (MM96L))” value [2] was 7.8.
Compound O=C(CCCSC[C@H](NC(=O)c1ccc(F)cc1)C(=O)NCc1ccccc1)NO [Example 29] has an IC50 [1, 5] of 26 ± 1 µM, an IC50 [2, 6] of 5.2 ± 0.6 µM and a Selectivity [2, 7] of 5.0.
Cc1ccnc(NC(=O)[C@H](CSCCCC(=O)NO)NC(=O)c2ccc(N(C)C)cc2)c1 [Example 79] was tested, and the IC50 [1, 8] was 11.2 ± 0.7 µM, the IC50 [2, 9] was 1.12 ± 0.06 µM and the Selectivity [2, 10] was 10.0.
With CN(C)c1ccc(C(=O)N[C@@H](CSCCCC(=O)NO)C(=O)NCc2ccc(C(=O)NCc3ccccn3)cc2)cc1 [Example 108] the IC50 [1, 11] was 16.9 µM, the IC50 [2, 12] was 2.28 µM and the Selectivity [2, 13] was 7.4.
O=C(/C=C/c1ccccc1)N[C@@H](CSCCCC(=O)NO)C(=O)Nc1ccncc1 [Example 97] showed an IC50 ([1]; Homo sapiens, Fibroblast, 24 h, Table 7, 24 hours with compound, further growth, read-out: IC50 (μM) NFF) of 1.6 ± 0.3 µM, an IC50 ([2]; Homo sapiens, MM96L, 24 h, Table 7, 24 hours with compound, further growth, SRB, read-out: IC50 (μM) MM96L) of 0.5 ± 0.2 µM and a Selectivity ([2]; Table 7, IC50 (NFF)/IC50 (MM96L)) of 3.3.
